Target: T1, active p38 alpha enzyme (Upstate Biotechnology) (Homo sapiens, UniProt Q16539)
T1 construct: purchased Upstate Biotechnology
Assay: p38α biochemical assay (ATP turnover, luminescent detection, Cambrex PKlight)
Conditions: p38α kinase; Table 1 Biological Activity
Procedure, shortened: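 In this kinase reaction, p38α used MapkapK2 as phosphorylation substrate at low ATP (1.4 uM final) over 2 hours at 30C, and activity was followed as ATP turnover by luminescence.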

T1 sequence (Q16539 whole entry): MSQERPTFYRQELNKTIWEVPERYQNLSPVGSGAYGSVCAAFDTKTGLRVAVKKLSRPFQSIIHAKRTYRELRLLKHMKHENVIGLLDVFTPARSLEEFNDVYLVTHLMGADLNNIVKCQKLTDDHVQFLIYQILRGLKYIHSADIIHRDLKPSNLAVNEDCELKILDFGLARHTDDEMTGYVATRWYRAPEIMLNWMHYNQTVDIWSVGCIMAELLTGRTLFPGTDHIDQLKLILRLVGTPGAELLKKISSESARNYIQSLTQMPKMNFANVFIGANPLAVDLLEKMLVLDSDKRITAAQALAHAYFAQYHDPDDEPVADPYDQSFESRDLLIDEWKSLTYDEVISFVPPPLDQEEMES

Compound `CC(C)NC(=O)c1csc(-c2c(-c3ccc(F)cc3)n[nH]c2C2CCN(C(=O)c3cc([N+](=O)[O-])ccc3F)CC2)n1` [Example 949] has an IC50 greater than 1 µM.

Compound `CC(C)NC(=O)c1csc(-c2c(-c3ccc(F)cc3)n[nH]c2C2CCN(C(=O)c3cc(F)ccc3[N+](=O)[O-])CC2)n1` [Example 950] has an IC50 greater than 1 µM.

Compound `CC(C)NC(=O)c1csc(-c2c(-c3ccc(F)cc3)n[nH]c2C2CCN(C(=O)c3ccc(F)c([N+](=O)[O-])c3)CC2)n1` [Example 951] has an IC50 greater than 1 µM.

In the case of `COc1ccc(Cl)cc1C(=O)N1CCC(c2[nH]nc(-c3ccc(F)cc3)c2-c2nc(C(=O)NC(C)C)cs2)CC1` [Example 952], the IC50 is reported as greater than 1 µM.

For `COc1cc(Cl)ccc1C(=O)N1CCC(c2[nH]nc(-c3ccc(F)cc3)c2-c2nc(C(=O)NC(C)C)cs2)CC1` [Example 953], the IC50 was greater than 1 µM.

Compound `CC(C)NC(=O)c1csc(-c2c(-c3ccc(F)cc3)n[nH]c2C2CCN(C(=O)Cc3ccc(O)c(Cl)c3)CC2)n1` [Example 954] has an IC50 greater than 1 µM.

In the case of `COc1cc(C(=O)N2CCC(c3[nH]nc(-c4ccc(F)cc4)c3-c3nc(C(=O)NC(C)C)cs3)CC2)cc(Cl)n1` [Example 955], the IC50 is reported as greater than 1 µM.

For `CC(C)NC(=O)c1csc(-c2c(-c3ccc(F)cc3)n[nH]c2C2CCN(C(=O)c3ccc4cc(O)ccc4c3)CC2)n1` [Example 956], the IC50 was greater than 1 µM.

Work on `CC(C)NC(=O)c1csc(-c2c(-c3ccc(F)cc3)n[nH]c2C2CCN(C(=O)c3c(O)ccc4ccccc34)CC2)n1` [Example 957] yielded an IC50 greater than 1 µM.

For `CC(C)NC(=O)c1csc(-c2c(-c3ccc(F)cc3)n[nH]c2C2CCN(C(=O)c3cc4ccccc4cc3O)CC2)n1` [Example 958], the IC50 was greater than 1 µM.

In the case of `CC(C)NC(=O)c1csc(-c2c(-c3ccc(F)cc3)n[nH]c2C2CCN(C(=O)c3ccc4ccccc4c3O)CC2)n1` [Example 959], the IC50 is reported as greater than 1 µM.

For `CC(C)NC(=O)c1csc(-c2c(-c3ccc(F)cc3)n[nH]c2C2CCN(C(=O)c3ccc4cccc(O)c4n3)CC2)n1` [Example 960], the IC50 was greater than 1 µM.

In the case of `CC(C)NC(=O)c1csc(-c2c(-c3ccc(F)cc3)n[nH]c2C2CCN(C(=O)C(C)NC(=O)OC(C)(C)C)CC2)n1` (stereo not shown) [Example 961], the IC50 is reported as greater than 1 µM.

Compound `CC(C)NC(=O)c1csc(-c2c(-c3ccc(F)cc3)n[nH]c2C2CCN(C(=O)C(C)NC(=O)OC(C)(C)C)CC2)n1` (stereo not shown) [Example 962] has an IC50 greater than 1 µM.

`CC(C)NC(=O)c1csc(-c2c(-c3ccc(F)cc3)n[nH]c2C2CCN(C(=O)c3ccccc3C(F)(F)F)CC2)n1` [Example 963] gave an IC50 greater than 1 µM.

`CC(C)NC(=O)c1csc(-c2c(-c3ccc(F)cc3)n[nH]c2C2CCN(C(=O)CCc3nc4ccccc4[nH]3)CC2)n1` [Example 964] gave an IC50 of no more than 1 µM.

`CC(C)NC(=O)c1csc(-c2c(-c3ccc(F)cc3)n[nH]c2C2CCN(C(=O)c3cccc(Cl)c3Cl)CC2)n1` [Example 965] showed an IC50 greater than 1 µM.

Work on `CC(C)NC(=O)c1csc(-c2c(-c3ccc(F)cc3)n[nH]c2C2CCN(C(=O)c3ccc(Cl)cc3Cl)CC2)n1` [Example 966] yielded an IC50 greater than 1 µM.

With `CC(C)NC(=O)c1csc(-c2c(-c3ccc(F)cc3)n[nH]c2C2CCN(C(=O)c3cc(Cl)ccc3Cl)CC2)n1` [Example 967] the IC50 was greater than 1 µM.

Work on `CC(C)NC(=O)c1csc(-c2c(-c3ccc(F)cc3)n[nH]c2C2CCN(C(=O)c3cc(F)c(F)c(O)c3F)CC2)n1` [Example 968] yielded an IC50 greater than 1 µM.

For `CC(C)NC(=O)c1csc(-c2c(-c3ccc(F)cc3)n[nH]c2C2CCN(C(=O)/C=C/c3ccc4c(c3)OCO4)CC2)n1` [Example 969], the IC50 was greater than 1 µM.

Compound `Cc1ccc(C(=O)CCC(=O)N2CCC(c3[nH]nc(-c4ccc(F)cc4)c3-c3nc(C(=O)NC(C)C)cs3)CC2)cc1` [Example 970] has an IC50 greater than 1 µM.

With `CCCCCc1ccc(C(=O)N2CCC(c3[nH]nc(-c4ccc(F)cc4)c3-c3nc(C(=O)NC(C)C)cs3)CC2)cc1` [Example 971] the IC50 was greater than 1 µM.

Work on `CC(C)NC(=O)c1csc(-c2c(-c3ccc(F)cc3)n[nH]c2C2CCN(C(=O)c3cc(F)c(F)cc3Cl)CC2)n1` [Example 972] yielded an IC50 greater than 1 µM.

With `CC(C)NC(=O)c1csc(-c2c(-c3ccc(F)cc3)n[nH]c2C2CCN(C(=O)c3cc(F)c(Cl)cc3F)CC2)n1` [Example 973] the IC50 was greater than 1 µM.

`CCN(CC)c1ccc(C(=O)N2CCC(c3[nH]nc(-c4ccc(F)cc4)c3-c3nc(C(=O)NC(C)C)cs3)CC2)cc1` [Example 974] showed an IC50 greater than 1 µM.

In the case of `COc1cc(/C=C/C(=O)N2CCC(c3[nH]nc(-c4ccc(F)cc4)c3-c3nc(C(=O)NC(C)C)cs3)CC2)ccc1O` [Example 975], the IC50 is reported as greater than 1 µM.

Work on `COc1ccc(/C=C/C(=O)N2CCC(c3[nH]nc(-c4ccc(F)cc4)c3-c3nc(C(=O)NC(C)C)cs3)CC2)cc1O` [Example 976] yielded an IC50 greater than 1 µM.

Work on `CCCCOc1ccc(C(=O)N2CCC(c3[nH]nc(-c4ccc(F)cc4)c3-c3nc(C(=O)NC(C)C)cs3)CC2)cc1` [Example 977] yielded an IC50 of no more than 1 µM.

For `CC(C)NC(=O)c1csc(-c2c(-c3ccc(F)cc3)n[nH]c2C2CCN(C(=O)c3cc4cc(Cl)ccc4o3)CC2)n1` [Example 978], the IC50 was greater than 1 µM.

`COc1ccc([N+](=O)[O-])c(C(=O)N2CCC(c3[nH]nc(-c4ccc(F)cc4)c3-c3nc(C(=O)NC(C)C)cs3)CC2)c1` [Example 979] showed an IC50 greater than 1 µM.

With `COc1cc(C(=O)N2CCC(c3[nH]nc(-c4ccc(F)cc4)c3-c3nc(C(=O)NC(C)C)cs3)CC2)cc(OC)c1O` [Example 980] the IC50 was greater than 1 µM.

Work on `CC(C)NC(=O)c1csc(-c2c(-c3ccc(F)cc3)n[nH]c2C2CCN(C(=O)c3ccccc3-c3ccccc3)CC2)n1` [Example 981] yielded an IC50 greater than 1 µM.

With `CC(C)NC(=O)c1csc(-c2c(-c3ccc(F)cc3)n[nH]c2C2CCN(C(=O)c3cccc(Br)c3)CC2)n1` [Example 982] the IC50 was greater than 1 µM.

Work on `CC(C)NC(=O)c1csc(-c2c(-c3ccc(F)cc3)n[nH]c2C2CCN(C(=O)c3ccc(Br)cc3)CC2)n1` [Example 983] yielded an IC50 greater than 1 µM.

Work on `CC(C)NC(=O)c1csc(-c2c(-c3ccc(F)cc3)n[nH]c2C2CCN(C(=O)c3cccc(Cl)c3[N+](=O)[O-])CC2)n1` [Example 984] yielded an IC50 greater than 1 µM.

`CC(C)NC(=O)c1csc(-c2c(-c3ccc(F)cc3)n[nH]c2C2CCN(C(=O)c3cc([N+](=O)[O-])ccc3Cl)CC2)n1` [Example 985] was tested, and the IC50 was greater than 1 µM.

`CC(C)NC(=O)c1csc(-c2c(-c3ccc(F)cc3)n[nH]c2C2CCN(C(=O)c3ccc([N+](=O)[O-])cc3Cl)CC2)n1` [Example 986] gave an IC50 greater than 1 µM.

With `CC(C)NC(=O)c1csc(-c2c(-c3ccc(F)cc3)n[nH]c2C2CCN(C(=O)C3=CC=CC(Cl)C=C3[N+](=O)[O-])CC2)n1` (stereo not shown) [Example 987] the IC50 was greater than 1 µM.

`CC(C)NC(=O)c1csc(-c2c(-c3ccc(F)cc3)n[nH]c2C2CCN(C(=O)c3ccc(Cl)c([N+](=O)[O-])c3)CC2)n1` [Example 988] gave an IC50 of no more than 1 µM.

In the case of `CC(C)NC(=O)c1csc(-c2c(-c3ccc(F)cc3)n[nH]c2C2CCN(C(=O)c3cc(Cl)ccc3[N+](=O)[O-])CC2)n1` [Example 989], the IC50 is reported as greater than 1 µM.

`CC(C)NC(=O)c1csc(-c2c(-c3ccc(F)cc3)n[nH]c2C2CCN(C(=O)c3cccc(Br)n3)CC2)n1` [Example 990] gave an IC50 greater than 1 µM.

With `CC(C)NC(=O)c1csc(-c2c(-c3ccc(F)cc3)n[nH]c2C2CCN(C(=O)c3cncc(Br)c3)CC2)n1` [Example 991] the IC50 was no more than 1 µM.

With `CC(C)NC(=O)c1csc(-c2c(-c3ccc(F)cc3)n[nH]c2C2CCN(C(=O)c3cc(F)c(F)cc3[N+](=O)[O-])CC2)n1` [Example 992] the IC50 was greater than 1 µM.

In the case of `CC(C)NC(=O)c1csc(-c2c(-c3ccc(F)cc3)n[nH]c2C2CCN(C(=O)Cc3ccc(C(F)(F)F)cc3)CC2)n1` [Example 993], the IC50 is reported as greater than 1 µM.

For `CC(C)Cc1ccc(C(C)C(=O)N2CCC(c3[nH]nc(-c4ccc(F)cc4)c3-c3nc(C(=O)NC(C)C)cs3)CC2)cc1` (stereo not shown) [Example 994], the IC50 was greater than 1 µM.

`CC(C)NC(=O)c1csc(-c2c(-c3ccc(F)cc3)n[nH]c2C2CCN(C(=O)c3cc(Cl)c(O)c(Cl)c3)CC2)n1` [Example 995] gave an IC50 greater than 1 µM.

`CC(C)NC(=O)c1csc(-c2c(-c3ccc(F)cc3)n[nH]c2C2CCN(C(=O)c3c(F)c(F)c(F)c(F)c3F)CC2)n1` [Example 996] was tested, and the IC50 was greater than 1 µM.

Compound `COc1cc(OC)c(C(=O)N2CCC(c3[nH]nc(-c4ccc(F)cc4)c3-c3nc(C(=O)NC(C)C)cs3)CC2)c(OC)c1` [Example 997] has an IC50 greater than 1 µM.

`COc1cc(OC)c(C(=O)N2CCC(c3[nH]nc(-c4ccc(F)cc4)c3-c3nc(C(=O)NC(C)C)cs3)CC2)cc1OC` [Example 998] gave an IC50 greater than 1 µM.

With `COc1cc(C(=O)N2CCC(c3[nH]nc(-c4ccc(F)cc4)c3-c3nc(C(=O)NC(C)C)cs3)CC2)cc(OC)c1OC` [Example 999] the IC50 was greater than 1 µM.

Work on `COc1ccc(C(=O)N2CCC(c3[nH]nc(-c4ccc(F)cc4)c3-c3nc(C(=O)NC(C)C)cs3)CC2)c(OC)c1OC` [Example 1000] yielded an IC50 greater than 1 µM.

`CC(C)NC(=O)c1csc(-c2c(-c3ccc(F)cc3)n[nH]c2C2CCN(C(=O)c3ccccc3Cc3ccccc3)CC2)n1` [Example 1001] showed an IC50 greater than 1 µM.

Work on `CC(C)NC(=O)c1csc(-c2c(-c3ccc(F)cc3)n[nH]c2C2CCN(C(=O)c3cccc(Oc4ccccc4)c3)CC2)n1` [Example 1002] yielded an IC50 greater than 1 µM.

For `CC(C)NC(=O)c1csc(-c2c(-c3ccc(F)cc3)n[nH]c2C2CCN(C(=O)c3ccccc3Oc3ccccc3)CC2)n1` [Example 1003], the IC50 was greater than 1 µM.

`CC(C)NC(=O)c1csc(-c2c(-c3ccc(F)cc3)n[nH]c2C2CCN(C(=O)c3ccc(Oc4ccccc4)cc3)CC2)n1` [Example 1004] was tested, and the IC50 was greater than 1 µM.

Work on `CC(C)NC(=O)c1csc(-c2c(-c3ccc(F)cc3)n[nH]c2C2CCN(C(=O)c3ccc(-c4ccc(O)cc4)cc3)CC2)n1` [Example 1005] yielded an IC50 greater than 1 µM.

`Cc1cc(C(=O)N2CCC(c3[nH]nc(-c4ccc(F)cc4)c3-c3nc(C(=O)NC(C)C)cs3)CC2)ccc1Br` [Example 1006] showed an IC50 greater than 1 µM.

`Cc1ccc(C(=O)N2CCC(c3[nH]nc(-c4ccc(F)cc4)c3-c3nc(C(=O)NC(C)C)cs3)CC2)cc1Br` [Example 1007] gave an IC50 greater than 1 µM.

`CC(C)NC(=O)c1csc(-c2c(-c3ccc(F)cc3)n[nH]c2C2CCN(C(=O)Cc3ccc(Br)cc3)CC2)n1` [Example 1008] gave an IC50 greater than 1 µM.

`CC(C)NC(=O)c1csc(-c2c(-c3ccc(F)cc3)n[nH]c2C2CCN(C(=O)C3CCCN3C(=O)OC(C)(C)C)CC2)n1` (stereo not shown) [Example 1009] gave an IC50 greater than 1 µM.
